Tests used:
PR = biological target: T1, PR (Homo sapiens, UniProt P06401); assay: MMTV-Luc reporter gene transactivation in HBE cells (MMTV-Luc alone); assay type: cell-based; details: P 100 nM, p<0.05
T1 sequence (P06401 1-933): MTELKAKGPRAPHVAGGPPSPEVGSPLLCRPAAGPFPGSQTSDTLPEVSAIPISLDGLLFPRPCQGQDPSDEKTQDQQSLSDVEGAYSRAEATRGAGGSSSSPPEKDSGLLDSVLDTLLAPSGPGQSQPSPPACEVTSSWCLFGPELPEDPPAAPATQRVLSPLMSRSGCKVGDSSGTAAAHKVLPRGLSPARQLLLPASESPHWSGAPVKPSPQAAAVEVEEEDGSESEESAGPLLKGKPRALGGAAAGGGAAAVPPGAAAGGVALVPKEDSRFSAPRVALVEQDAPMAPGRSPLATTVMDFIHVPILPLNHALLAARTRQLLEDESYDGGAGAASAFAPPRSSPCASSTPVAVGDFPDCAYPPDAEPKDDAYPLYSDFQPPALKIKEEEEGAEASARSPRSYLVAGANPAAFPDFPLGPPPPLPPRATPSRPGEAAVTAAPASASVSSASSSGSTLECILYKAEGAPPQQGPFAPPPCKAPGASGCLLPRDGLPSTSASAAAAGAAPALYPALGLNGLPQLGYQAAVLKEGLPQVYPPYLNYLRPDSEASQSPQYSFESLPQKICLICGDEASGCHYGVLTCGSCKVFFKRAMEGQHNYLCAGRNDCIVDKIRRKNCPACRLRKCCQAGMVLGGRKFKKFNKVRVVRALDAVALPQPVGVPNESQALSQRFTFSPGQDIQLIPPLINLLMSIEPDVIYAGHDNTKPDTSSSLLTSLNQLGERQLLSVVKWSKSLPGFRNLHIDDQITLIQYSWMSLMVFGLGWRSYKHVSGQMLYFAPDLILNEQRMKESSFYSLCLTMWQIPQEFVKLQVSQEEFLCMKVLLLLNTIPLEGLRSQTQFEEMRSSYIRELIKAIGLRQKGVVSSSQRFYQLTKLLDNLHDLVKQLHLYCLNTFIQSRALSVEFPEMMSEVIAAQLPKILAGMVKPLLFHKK
Procedure: T-47D and MCF-7 cell lines were respectively maintained in RPMI 1640 and in DMEM medium supplemented with 10% fetal calf serum (PAA Laboratory, Les Mureaux, France). […] Normal human breast epithelial cell (HBE) primary cultures were obtained from 20 women (aged 17-50 years). […] HBE cells were maintained in HAM F10 medium (PAA Laboratory, Les Mureaux, France) containing hydrocortisone (5 ng/ml), Triiodo-L-thyronine (6.5 ng/ml), choleratoxin (10 ng/ml), transferrin (5 mg/ml), insulin (0.016 U/ml), epidermal growth factor (10 ng/ml) (Sigma, St Quentin Fallavier, France) and 5% human serum (Etablissement Français du Sang). […]
Cells were transfected with reporter gene plasmids containing glucocorticoid and progesterone responsive elements (GRE/PRE): 1) the MMTV-Luc is a Mouse Mammary Tumor Virus Long Terminal Repeat promoter containing one GRE/PRE palindrome and three GRE/PRE hemi-palindromes upstream to firefly luciferase gene in pFC31 vector, 2) the GRELuc contains six copies of GRE/PRE palindrome upstream to firefly luciferase gene in pBL vector. […] At the end of the experiment, cells were lysed and luciferase activity was determined using the Luciferase Assay System (Promega, Charbonnières-les-bains, France). Beta galactosidase activity was assessed using the Galacto Star kit (Applied Biosystems, Courtaboeuf, France) to normalize luciferase activity data.

[1] = tested on: PR target genes (FASN, cyclin A, BCL2, ALPL); assay: qRT-PCR mRNA expression of PR target genes in HBE cells; assay type: cell-based, human; details: P and/or UPA 100 nM, E2 10 nM
Procedure: (§1) After seeding, cells were cultured for 24 h in serum and phenol red free medium. Then treatments were carried out in a phenol red free medium containing 5% dextran-charcoal stripped serum. Cells were treated with P or DEX (100 nM), alone or in combination with UPA, RU (1 nM to 1 μM) or CDB-3877 (100 nM). Control cells were treated with ethanol, at […] 1:1000 final ethanol concentration alone as vehicle or E2 (10 nM).
(§2) Total RNA was extracted using TriZOL Reagent (Invitrogen, Cergy-Pontoise, France).
(§3) 2 μg of total RNA was subjected to reverse transcription (RT) using random primers for 1 h at 37° C. 2 μl of RT product was diluted (1:10) and subjected to quantitative PCR using sequence specific primers (300 nM) and Brillant SYBR GREEN QPCR master mix (Fermentas, Saint-Rémy-lès-Chevreuse, France) on an Mx3000P apparatus (Agilent Technologies, Massy, France). Conditions were 1 cycle at 95° C. for 10 min followed by 40 cycles at 95° C. for 30 sec, 60° C. for 1 min and 72° C. for 30 sec. Gene expression values were normalized to the housekeeping gene 36B4. Time of steroid treatment was chosen to get the optimal stimulation for a given gene. ALPL and G0S8 mRNA were analyzed after 6 h of treatment. IEX-1, FASN, and BCL2 were analyzed after 24 h of treatment. Cyclin A mRNA was analyzed after 24 h for GR responses or 48 h for PR responses.

[2] = tested on: PR target genes (FASN, cyclin A, BCL2, ALPL); assay: qRT-PCR mRNA expression of PR target genes in T-47D cells; assay type: cell-based, human; details: P and/or UPA 100 nM
Procedure: as §1, §2, §3

HBE cells [3] = assay: Tritiated thymidine incorporation (proliferation) in HBE cells; assay type: cell-based, human; details: 96 h, 100 nM
Procedure: as §1
(§4) After 24 h of hormonal treatment, cells were incubated with [methyl-1 3H] thymidine (Perkin Elmer, Courtaboeuf, France) for 48 h or 20 h for KBE or cancer cells, respectively at 37° C. After incubation cells were washed twice with PBS 1× and once with 5% trichloroacetic acid (TCA). Cells were incubated in 5% TCA for 15 min at 4° C. and lysed in NaOH 0.1 N for 30 min at 37° C. The total cell lysate was added to 5 ml of Ecolite scintillation liquid (MP biomedical, Illkirch, France) and radioactivity was counted with a β-counter HIDEX 300SL (ScienceTec, Courtaboeuf, France).

T-47D cells [4] = assay: Tritiated thymidine incorporation (proliferation) in T-47D cells; assay type: cell-based, human; details: 48 h, 100 nM
Procedure: as §1, §4

HBE cells [5] = assay: Apoptosis, sub-G1 quantification by flow cytometry in HBE cells; assay type: cell-based, human; details: 96 h, 100 nM
Procedure: as §1
(§5) After 96 h or 48 h of hormonal treatment, respectively, for HBE or MCF-7 and T-47D cells, cells were washed in PBS, matrix dissociated with accutase enzyme (PAA laboratory, Les Mureaux, France), and centrifuged 5 minutes at 1350 rpm. Cells were fixed and frozen at −20° C. in 70% ethanol. Before analysis, cells were washed in PBS and stained with 10 μg/ml propidium iodide in PBS (containing 0.835 U/ml RNase A) (Sigma, St Quentin Fallavier, France). For each sample at least 10 000 cells were counted in a BD LSR II flow cytometer (BD Biosciences, Le Pont de Claix, France). After gating out doublets and debris, cycle distribution was analyzed using the ModFit LT software (Verity Software House, USA).

T-47D cells [6] = assay: Apoptosis, sub-G1 quantification by flow cytometry in T-47D cells; assay type: cell-based, human; details: 48 h, 100 nM
Procedure: as §1, §5

[7] = Hormone concentrations in serum of pellet-treated athymic mice; assay type: in vivo; details: female, NMRI nu/nu athymic, mouse, other: steroid pellets grafted onto the neck, 20 mg pellet (P from day 14, UPA from day 1), day 28, read-out: concentration in mice serum (mean±SEM)
Procedure: Four weeks old ovariectomized female NMRInu/nu 20 athymic mice were purchased from Janvier laboratory (Le Genest Saint Isle, France). Breast tissues samples were obtained from 6 women (aged 29-42 years). Human mammary gland tissue was cut into 2×2×2 mm fragments and 4 fragments were then subcutaneously xenografted onto the back of 4 mice per group. Four treatment groups were performed: control, E2, E2+P and E2+P+UPA. Treatments were administered by grafting steroid pellets onto the neck of each mouse. The experimental conditions were initially determined by using a dose range of hormones mixed with cholesterol into the pellets. Blood sample assays were performed after 2 weeks and 4 weeks of treatment to measure plasmatic hormonal concentrations. Finally, the dose of 0.3 mg for E2 and 20 mg for P and UPA were used, as it provides the expected blood concentrations. For the control groups, pellets containing only cholesterol were used. To reproduce menstrual cycle conditions, mice were grafted on the first day of experiment with cholesterol, E2 and/or UPA containing pellets and on the fourteen day with cholesterol or progesterone containing pellets in control and E2 groups, or in E+P and E2+P+UPA groups, respectively. Twenty eight days after the start of experiment, mice were sacrificed. Blood was collected for each mouse, and serum was frozen at −20° C. until hormone concentrations
Estradiol was measured by radioimmunoassay using Clinical Assays Estradiol-2 (Sorin Biomedica Diagnostics SpA, Saluggia, Italia). Progesterone levels were evaluated by UPLC-MSMS using Acquity UPLC and Quattro Premier XE (Waters, Milford Mass., USA).
UPA concentrations were measured using LC-MS/MS technique by MPI Research (State College, Pa., USA).

## CC(=O)[C@H]1CC[C@H]2[C@@H]3CCC4=CC(=O)CC[C@]4(C)[C@H]3CC[C@]12C [P, progesterone]
PR
  luciferase expression (MMTV-Luc): 1.38±0.11 control fold induction
[1]; 24 h
  BCL2 mRNA expression (PR response): decrease of BCL2 mRNA expression by P
  FASN mRNA expression: induction of FASN mRNA expression
[1]; 48 h
  cyclin A mRNA expression (PR response): down regulated cyclin A mRNA expression
[2]; 6 h
  ALPL mRNA expression: strong P mediated induction of ALPL transcript
[2]; 24 h
  FASN mRNA expression: induction of FASN mRNA expression
[2]; 24 h, p<0.01
  BCL2 mRNA expression (PR response): decrease of BCL2 mRNA expression by P
[2]; 48 h
  cyclin A mRNA expression (PR response): down regulated cyclin A mRNA expression
HBE cells [3]
  cell proliferation ([3H] thymidine incorporation), compound alone: anti-proliferative effect
T-47D cells [4]
  cell proliferation ([3H] thymidine incorporation), compound alone: anti-proliferative activity
HBE cells [5]
  cell apoptosis (sub-G1 percentage), compound alone: intense pro-apoptotic effect
T-47D cells [6]
  cell apoptosis (sub-G1 percentage), compound alone: increased the percentage of sub-G1 cells
[7]
  concentration at 28 days: 13.1 ± 1.14 ng/mL

— patent publication US9814732B2, “Ulipristal acetate for prevention and treatment of breast tumors” (LABORATOIRE HRA-PHARMA, priority 2012, dated 2017)
